Experiments:
[1] = molecular target: Poly [ADP-ribose] polymerase 1 (Homo sapiens, UniProt P09874); experiment: Inhibitory concentration against human poly (ADP-ribose) polymerase 1 (PARP-1)
[2] = In vitro metabolic stability was measured in human liver microsomes; type: ADME, Microsome
[3] = system: HeLa; experiment: Potentiation factor (ratio of the IC50 growth curve for the alkylating agent, methyl methanesulfonate (MMS) divided by the IC50 of the curve of MMS + PARP inhibitor) against human HeLa B cells at a concentration of 200 nM; type: functional
[4] = In vitro metabolic stability was measured in mouse liver microsomes; type: ADME, Microsome

Chain of Poly [ADP-ribose] polymerase 1 (P09874 whole entry): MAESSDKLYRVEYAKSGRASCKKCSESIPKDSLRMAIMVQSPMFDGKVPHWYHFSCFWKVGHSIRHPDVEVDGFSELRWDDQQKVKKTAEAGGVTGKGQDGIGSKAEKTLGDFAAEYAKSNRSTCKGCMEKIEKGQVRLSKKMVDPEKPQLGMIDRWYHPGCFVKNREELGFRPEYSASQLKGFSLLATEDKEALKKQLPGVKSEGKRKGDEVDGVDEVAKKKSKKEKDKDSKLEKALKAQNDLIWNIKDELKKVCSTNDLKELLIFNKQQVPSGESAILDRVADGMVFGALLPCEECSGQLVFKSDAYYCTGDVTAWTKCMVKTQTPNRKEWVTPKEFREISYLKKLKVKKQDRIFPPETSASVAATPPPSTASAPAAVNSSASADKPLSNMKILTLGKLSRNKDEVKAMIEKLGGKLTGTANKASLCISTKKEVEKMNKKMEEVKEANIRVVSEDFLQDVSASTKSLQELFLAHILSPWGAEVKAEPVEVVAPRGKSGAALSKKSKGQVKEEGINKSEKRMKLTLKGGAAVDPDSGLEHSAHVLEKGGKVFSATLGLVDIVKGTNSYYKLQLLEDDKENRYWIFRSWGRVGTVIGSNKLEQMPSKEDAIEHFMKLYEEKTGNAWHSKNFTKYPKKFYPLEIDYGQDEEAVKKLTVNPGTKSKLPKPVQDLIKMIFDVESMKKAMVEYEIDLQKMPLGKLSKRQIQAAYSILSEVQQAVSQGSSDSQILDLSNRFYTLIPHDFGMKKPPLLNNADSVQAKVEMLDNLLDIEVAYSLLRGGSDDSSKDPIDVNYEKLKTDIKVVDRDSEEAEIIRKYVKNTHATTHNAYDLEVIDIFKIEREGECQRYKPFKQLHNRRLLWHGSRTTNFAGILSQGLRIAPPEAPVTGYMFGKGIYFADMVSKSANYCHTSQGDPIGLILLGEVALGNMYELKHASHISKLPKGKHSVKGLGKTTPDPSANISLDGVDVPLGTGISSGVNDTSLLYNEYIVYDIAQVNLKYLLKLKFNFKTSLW

With `CC(C)C(=O)Nc1cccc(Cc2nnc(O)c3ccccc23)c1` the IC50 [1] was 370 nM.

For `CCOC(=O)Nc1cccc(Cc2nnc(O)c3ccccc23)c1`, the IC50 [1] was 116 nM.

Compound `O=C(Nc1cccc(Cc2nnc(O)c3ccccc23)c1)c1ccc(-n2cccn2)nc1` has an IC50 [1] of 47 nM.

In the case of `CCS(=O)(=O)Nc1cccc(Cc2n[nH]c(=O)c3ccccc23)c1`, the IC50 [1] is reported as 290 nM.

Work on `Cc1noc(-c2cccc(Cc3nnc(O)c4ccccc34)c2)n1` yielded an IC50 [1] of 189 nM.

With `O=C1CCC(=O)N1c1cccc(Cc2n[nH]c(=O)c3ccccc23)c1` the Cli [2] was < 0.05 ml min-1 g-1 liver and the PF50 [3] was 1.74.

For `O=C(Nc1cccc(Cc2nnc(O)c3ccccc23)c1)C(F)(F)F`, the IC50 [1] was 13 nM and the Cli [4] was > 50 ml min-1 g-1 liver.

Work on `O=C1CCC(=O)N1c1cc(Cc2n[nH]c(=O)c3ccccc23)ccc1Cl` yielded a PF50 [3] of 1.5.

`CN1CC(=O)N(c2cc(Cc3nnc(O)c4ccccc34)ccc2F)C(=O)C1` gave a PF50 [3] of 3.1.

For `O=C1CCC(=O)N1c1cc(Cc2n[nH]c(=O)c3ccccc23)ccc1F`, the IC50 [1] was 5 nM, the PF50 [3] was 5.62 and the Cli [4] was < 1 ml min-1 g-1 liver.

For `O=C1CC(c2ccccc2)C(=O)N1c1cc(Cc2n[nH]c(=O)c3ccccc23)ccc1F` (configuration not stated), the PF50 [3] was 5.4.

`O=C(Nc1cccc(Cc2n[nH]c(=O)c3ccccc23)c1)C1CC1` showed an IC50 [1] of 55 nM.

In the case of `O=C1CCCN1c1cccc(Cc2n[nH]c(=O)c3ccccc23)c1`, the Cli [4] is reported as 4.9 ml min-1 g-1 liver.

Compound `CCCNC(=O)Nc1cccc(Cc2n[nH]c(=O)c3ccccc23)c1` has an IC50 [1] of 540 nM.

`CC1(C)CC(=O)N(c2cc(Cc3nnc(O)c4ccccc34)ccc2F)C1=O` showed a PF50 [3] of 2.9.

`O=C1C=CC(=O)N1c1cccc(Cc2nnc(O)c3ccccc23)c1` gave a PF50 [3] of 0.94.

For `O=C1CCCC(=O)N1c1cc(Cc2n[nH]c(=O)c3ccccc23)ccc1F`, the PF50 [3] was 3.6.

In the case of `O=C1c2ccccc2C(=O)N1c1cccc(Cc2n[nH]c(=O)c3ccccc23)c1`, the IC50 [1] is reported as 180 nM.

`CC1CC(=O)N(c2cc(Cc3n[nH]c(=O)c4ccccc34)ccc2F)C1=O` (configuration not stated) gave a PF50 [3] of 18.2.

`COc1ccc(Cc2n[nH]c(=O)c3ccccc23)cc1N1C(=O)CCC1=O` showed an IC50 [1] of 33 nM and a PF50 [3] of 1.5.

Compound `CC(=O)Oc1cccc(Cc2n[nH]c(=O)c3ccccc23)c1` has an IC50 [1] of 36 nM.

For `CCC(=O)Nc1cccc(Cc2n[nH]c(=O)c3ccccc23)c1`, the IC50 [1] was 20 nM and the Cli [4] was 12 ml min-1 g-1 liver.

Work on `O=C(Nc1cccc(Cc2n[nH]c(=O)c3ccccc23)c1)c1ccc(-c2ccsc2)s1` yielded an IC50 [1] of 56 nM.

For `CCNC(=O)c1cccc(Cc2n[nH]c(=O)c3ccccc23)c1`, the IC50 [1] was 50 nM and the Cli [4] was < 1 ml min-1 g-1 liver.

`COc1ccc(-n2cc(C(=O)Nc3cccc(Cc4n[nH]c(=O)c5ccccc45)c3)c(C)n2)cc1` showed an IC50 [1] of 10 nM.

`Cc1nc(-c2ccccc2)sc1C(=O)Nc1cccc(Cc2n[nH]c(=O)c3ccccc23)c1` gave an IC50 [1] of 27 nM.

`CCCC(=O)Nc1cccc(Cc2n[nH]c(=O)c3ccccc23)c1` showed an IC50 [1] of 90 nM.

`O=C1C2CC2C(=O)N1c1cc(Cc2nnc(O)c3ccccc23)ccc1F` (configuration not stated) showed an IC50 [1] of 5 nM and a PF50 [3] of 14.4.

Compound `O=c1[nH]nc(Cc2ccccc2)c2ccccc12` has an IC50 [1] of 770 nM.

From ChEMBL document CHEMBL1141921, “Phthalazinones. Part 1: The design and synthesis of a novel series of potent inhibitors of poly(ADP-ribose)polymerase” (Bioorg Med Chem Lett, 2005)
